Results published in publication PMC11511194, “Key Factors for Improving Predictive Accuracy and Avoiding Overparameterization of the PBPK Absorption Model in Food Effect Studies of Weakly Basic Water-Insoluble Compounds in Immediate Release Formulations” (Pharmaceutics, 2024).
Where two headings read alike, the source gives them in different places.

What was measured:
[1] = Two-stage biorelevant dissolution (transfer test FaSSGF to FaSSIF); assay type: physicochemical; conditions: formulation, gastric to intestinal chamber in vitro
Protocol: Because the solubility of weakly basic water-insoluble compounds is higher in the acidic gastric environment compared to the near-neutral intestinal environment, and that bile salts can enhance the solubility of poorly soluble drugs in the intestine, a two-stage dissolution test was performed to explore the drug transfer process from the stomach to the intestine. The transfer apparatus comprised two USP 2 vessels representing the gastric and intestinal chambers, which are interconnected via a peristaltic pump to simulate first-order gastric emptying dynamics. […] Additional samples in the two-stage dissolution test were analyzed every minute with the same instrument. […]
Precipitation parameters, such as critical supersaturation ratio (CSC) and precipitation rate constant (PRC), were evaluated when precipitation occurs in the neutral intestinal environment after the mixture of solution and undissolved substance is transferred from the gastric chamber in vitro. These parameters were evaluated by fitting the two-stage dissolution profile according to the crystallization kinetics equations [28, 29, 30]. […] The calibrated permeability of drugs, as determined using the Caco-2 Transwell model, was used to represent the permeability of drugs in vivo [31]. […]

CYP3A4 = CYP3A4 intrinsic clearance fitted in PBPK model; conditions: Fitted to clinical PK profiles
Text: S2. PBPK model development and validation physicochemical parameters for these three model drugs, including protein binding and Blood-to-Plasma (B/P) ratio, were obtained from experimental results, while log P and pKa were estimated based on the molecular formula using Gastro Plus ADMET software (version 10.3, […]
S2.1. Rivaroxaban PBPK model development and validation
S2.1.1. Rivaroxaban PBPK model development for metabolism and elimination module Given that the metabolic fractions of CYP3A4 and CYP2J2 to the systemic clearance of rivaroxaban were approximately 18% and 14% [1], respectively, and liver hydrolases contributed to about 14% of its systemic clearance, CLint_CYP3A4, CLint_CYP2J2 and CLHLM were fitted according to the metabolic fraction of rivaroxaban in vivo and concentration-time profiles from the SAD clinical trial in Caucasian subjects under fasted state. Considering that rivaroxaban was a substrate of P-gp transporter, and that about 36% and 7% of the parent drug were directly excreted by the kidney and liver, respectively, rivaroxaban may undergo active efflux through the kidney and liver in vivo [2]. Consequently, permeability-limited kidney and liver models were employed to account for the active efflux mechanism of P-gp for rivaroxaban. These models include both passive diffusion and active transport.
Clearances for passive diffusion in the kidney and liver was calculated using Equation S1 [5] and Equation S2 [6], respectively.
CL௉஽,௜ =2×P௔௣௣ × TSA௜ ሺS1ሻ where CLPD,i is the passive diffusion clearance of the drug in compartment i, Papp is the apparent permeability of the drug, and the TSAi is the regional tubular surface area of compartment i.
Log CL௉஽ =0.82×logD଻.ସ +0.5 ሺS2ሻ where CLPD is the passive diffusional clearance of APIs in the liver, and log D 7.4 is the oil-water partition coefficient at pH 7.4 [6] […]
Blood-to-plasma partition ratio 0.714 Measured
Fraction unbound in plasma 0.065 Measured […]
Caco-2(10-6cm/s) (Rivaroxaban) 8.103 Measured […]

Caco-2 = conditions: Apical pH : Basolateral pH 7.4 : 7.4, Passive&Active, cited from earlier work

Row | Structure (SMILES) | behaviour after transfer from FaSSGF to FaSSIF [1] | Intrinsic clearance of CYP 3A4 (CYP3A4) [µL/min/pmol] | Caco-2 permeability (Caco-2; supplement ref 4) | Caco-2 permeability (Caco-2; supplement ref 19)
1 | O=C(NC[C@H]1CN(c2ccc(N3CCOCC3=O)cc2)C(=O)O1)c1ccc(Cl)s1 [Rivaroxaban] | continued to dissolve | 0.027 | 8.103 10-6cm/s | –
2 | CCCSc1nc(N[C@@H]2C[C@H]2c2ccc(F)c(F)c2)c2nnn([C@@H]3C[C@H](OCCO)[C@@H](O)[C@H]3O)c2n1 [Ticagrelor] | continued to dissolve | 5.00 | – | 6.0 10-6cm/s
